Test results from patent US20240390464A1, “Treatment of Adults With Overweight or Obesity With or Without Weight-Related Comorbidities” (Carmot Therapeutics Inc., priority 2023, published 2024).
Numbered stars: 1 amine (or outer) side, 2 acyl side, 3 side chain; on linkers, the order of the positions; unused ones are H or OH. Square brackets hold non-standard residues; d marks the D form. Side chains are listed from the residue outwards. Peptide text beside a SMILES is read from it. * marks the point of attachment. Isobutyryl(2-(3-CN-5-F-Ph)) = CC(C)(C(=O)*)c1cc(F)cc(C#N)c1; C20 diacid = O=C(O)CCCCCCCCCCCCCCCCCCC(=O)*; γGlu = O=C(O)[C@H](CCC(=O)[*:2])N[*:1]; AEEA = NCCOCCOCC(=O)O; Aib = CC(C)(N)C(=O)O; βAla = NCCC(=O)O

Assay: Phase 1 SAD Cohorts 1-5: safety and tolerability (adverse events)
Format: in vivo, human
Conditions: for AE: Abdominal bloating / AE: Abdominal cramp / AE: Abdominal cramp with loose bowel / AE: Abdominal pain / AE: Abnormal LFTs / AE: Constipation / AE: Diarrhea / AE: Dyspepsia / AE: Dysphasia / AE: Early satiety / AE: Emesis / AE: Exacerbated GERD / AE: Fatigue / AE: Headache / AE: Indigestion / AE: Lethargy / AE: Loose bowel motion / AE: Loose stools / AE: Loss of Appetite / AE: Microscopic hematuria / AE: Nausea / AE: Reduced appetite / AE: Reduced bowel motion / AE: Reflux / AE: Throat discomfort / AE: Vomiting / Life-threatening TEAE / Moderate TEAEs / Related TEAEs / Serious TEAEs / Severe TEAEs / TEAE leading to death / TEAEs: N = 8, blinded
From the text: This Example outlines the protocol for a Phase 1 randomized, double-blind, placebo-controlled study to evaluate the safety, tolerability, pharmacokinetics, and pharmacodynamics of CT-388 in otherwise healthy overweight and obese adult participants and in obese patients with type 2 diabetes mellitus.
The primary objective of this study is to determine the safety and tolerability of CT-388 in otherwise healthy overweight and obese adult participants when administered as a single dose of 0.5, 2.0, 5.0, 6.0, or 7.5 mg.
Safety and tolerability will be assessed by monitoring adverse events (AE) including local injection-site reactions, measuring vital signs and ECGs, and performing clinical laboratory blood and urine analyses.
• Cohort 1: One dose containing 0.5 mg of CT-388 or matched placebo administered subcutaneously in the abdomen • Cohort 2: One dose containing 2.0 mg of CT-388 or matched placebo administered subcutaneously in the abdomen • Cohort 3: One dose containing 5.0 mg of CT-388 or matched placebo administered subcutaneously in the abdomen • Cohort 4: One dose containing 7.5 mg of CT-388 or matched placebo administered subcutaneously in the abdomen • Cohort 5: One dose containing 6.0 mg of CT-388 or matched placebo administered subcutaneously in the abdomen
A Phase 1, randomized, placebo-controlled, double-blind study was conducted where single ascending doses (SAD; n=40; 0.5-7.5 mg) and multiple ascending doses (MAD; n=24; 5-12 mg via titration in 3 cohorts) were administered as described in Example 1 to overweight/obese adults.

[1] = Cohort 1, 0.5 mg/Placebo single SC dose
[2] = Cohort 2, 2 mg/Placebo single SC dose
[3] = Cohort 3, 5 mg/Placebo single SC dose
[4] = Cohort 4, 7.5 mg/Placebo single SC dose
[5] = Cohort 5, 6 mg/Placebo single SC dose

CC[C@H](C)[C@H](NC(=O)[C@H](CC(C)C)NC(=O)[C@H](Cc1c[nH]c2ccccc12)NC(=O)[C@H](CCC(N)=O)NC(=O)[C@@H](NC(=O)[C@H](Cc1ccccc1)NC(=O)[C@H](C)NC(=O)[C@H](CCCCNC(=O)COCCOCCNC(=O)COCCOCCNC(=O)CC[C@H](NC(=O)CCCCCCCCCCCCCCCCCCC(=O)O)C(=O)O)NC(=O)[C@H](CCC(N)=O)NC(=O)[C@H](C)NC(=O)[C@@H](NC(=O)[C@H](CCCCN)NC(=O)[C@H](CC(=O)O)NC(=O)[C@H](CC(C)C)NC(=O)C(C)(C)NC(=O)[C@@H](NC(=O)[C@H](CO)NC(=O)[C@H](Cc1ccc(O)cc1)NC(=O)[C@H](CC(=O)O)NC(=O)[C@H](CO)NC(=O)[C@@H](NC(=O)[C@H](Cc1ccccc1)NC(=O)[C@@H](NC(=O)CNC(=O)[C@H](CCC(=O)O)NC(=O)CCNC(=O)C(C)(C)c1cc(F)cc(C#N)c1)[C@@H](C)O)[C@@H](C)O)[C@@H](C)CC)[C@@H](C)CC)C(C)C)C(=O)N[C@@H](C)C(=O)NCC(=O)NCC(=O)N1CCC[C@H]1C(=O)N[C@@H](CO)C(=O)N[C@@H](CO)C(=O)NCC(=O)N[C@@H](C)C(=O)N1CCC[C@H]1C(=O)N1CCC[C@H]1C(=O)N1CCC[C@H]1C(=O)N[C@@H](CO)C(N)=O [CT-388] ({Isobutyryl(2-(3-CN-5-F-Ph))-βAla}-EGTFTSDYSI[Aib]LDKIAQK([AEEA-AEEA-γGlu-C20 diacid])AFVQWLIAGGPSSGAPPPS-NH2)
AE: Abdominal bloating [1]: 0 | AE: Abdominal cramp [1]: 0 | AE: Abdominal cramp with loose bowel [1]: 0 | AE: Abdominal pain [1]: 0 | AE: Abnormal LFTs [1]: 0 | AE: Constipation [1]: 0 | AE: Diarrhea [1]: 0 | AE: Dyspepsia [1]: 0 | AE: Dysphasia [1]: 0 | AE: Early satiety [1]: 0 | AE: Emesis [1]: 0 | AE: Exacerbated GERD [1]: 0 | AE: Fatigue [1]: 0 | AE: Headache [1]: 0 | AE: Indigestion [1]: 0 | AE: Lethargy [1]: 0 | AE: Loose bowel motion [1]: 0 | AE: Loose stools [1]: 0 | AE: Loss of Appetite [1]: 0 | AE: Microscopic hematuria [1]: 0 | AE: Nausea [1]: 0 | AE: Reduced appetite [1]: 0 | AE: Reduced bowel motion [1]: 0 | AE: Reflux [1]: 0 | AE: Throat discomfort [1]: 0 | AE: Vomiting [1]: 0 | Life-threatening TEAE [1]: 0 | Moderate TEAEs [1]: 0 | Related TEAEs [1]: 0 | Serious TEAEs [1]: 0 | Severe TEAEs [1]: 0 | TEAE leading to death [1]: 0 | TEAEs [1]: 8 | AE: Abdominal bloating [2]: 0 | AE: Abdominal cramp [2]: 0 | AE: Abdominal cramp with loose bowel [2]: 2 (25.0%) | AE: Abdominal pain [2]: 0 | AE: Abnormal LFTs [2]: 0 | AE: Constipation [2]: 2 (25.0%) | AE: Diarrhea [2]: 0 | AE: Dyspepsia [2]: 0 | AE: Dysphasia [2]: 0 | AE: Early satiety [2]: 1 (12.5%) | AE: Emesis [2]: 0 | AE: Exacerbated GERD [2]: 0 | AE: Fatigue [2]: 2 (25.0%) | AE: Headache [2]: 1 (12.5%) | AE: Indigestion [2]: 0 | AE: Lethargy [2]: 1 (12.5%) | AE: Loose bowel motion [2]: 0 | AE: Loose stools [2]: 0 | AE: Loss of Appetite [2]: 2 (25.0%) | AE: Microscopic hematuria [2]: 0 | AE: Nausea [2]: 0 | AE: Reduced appetite [2]: 0 | AE: Reduced bowel motion [2]: 0 | AE: Reflux [2]: 0 | AE: Throat discomfort [2]: 0 | AE: Vomiting [2]: 0 | Life-threatening TEAE [2]: 0 | Moderate TEAEs [2]: 1 | Related TEAEs [2]: 6 | Serious TEAEs [2]: 0 | Severe TEAEs [2]: 0 | TEAE leading to death [2]: 0 | TEAEs [2]: 8 | AE: Abdominal bloating [3]: 0 | AE: Abdominal cramp [3]: 0 | AE: Abdominal cramp with loose bowel [3]: 0 | AE: Abdominal pain [3]: 0 | AE: Abnormal LFTs [3]: 0 | AE: Constipation [3]: 0 | AE: Diarrhea [3]: 0 | AE: Dyspepsia [3]: 1 (12.5%) | AE: Dysphasia [3]: 1 (12.5%) | AE: Early satiety [3]: 0 | AE: Emesis [3]: 2 (25.0%) | AE: Exacerbated GERD [3]: 0 | AE: Fatigue [3]: 0 | AE: Headache [3]: 0 | AE: Indigestion [3]: 1 (12.5%) | AE: Lethargy [3]: 0 | AE: Loose bowel motion [3]: 0 | AE: Loose stools [3]: 0 | AE: Loss of Appetite [3]: 1 (12.5%) | AE: Microscopic hematuria [3]: 1 (12.5%) | AE: Nausea [3]: 0 | AE: Reduced appetite [3]: 0 | AE: Reduced bowel motion [3]: 0 | AE: Reflux [3]: 0 | AE: Throat discomfort [3]: 0 | AE: Vomiting [3]: 0 | Life-threatening TEAE [3]: 0 | Moderate TEAEs [3]: 0 | Related TEAEs [3]: 4 | Serious TEAEs [3]: 0 | Severe TEAEs [3]: 0 | TEAE leading to death [3]: 0 | TEAEs [3]: 6 | AE: Abdominal bloating [4]: 1 (12.5%) | AE: Abdominal cramp [4]: 1 (12.5%) | AE: Abdominal cramp with loose bowel [4]: 0 | AE: Abdominal pain [4]: 0 | AE: Abnormal LFTs [4]: 1 (12.5%) | AE: Constipation [4]: 0 | AE: Diarrhea [4]: 2 (25.0%) | AE: Dyspepsia [4]: 0 | AE: Dysphasia [4]: 0 | AE: Early satiety [4]: 0 | AE: Emesis [4]: 0 | AE: Exacerbated GERD [4]: 1 (12.5%) | AE: Fatigue [4]: 0 | AE: Headache [4]: 2 (25.0%) | AE: Indigestion [4]: 0 | AE: Lethargy [4]: 0 | AE: Loose bowel motion [4]: 0 | AE: Loose stools [4]: 1 (12.5%) | AE: Loss of Appetite [4]: 1 (12.5%) | AE: Microscopic hematuria [4]: 0 | AE: Nausea [4]: 6 (75.0%) | AE: Reduced appetite [4]: 2 (25.0%) | AE: Reduced bowel motion [4]: 1 (12.5%) | AE: Reflux [4]: 2 (25.0%) | AE: Throat discomfort [4]: 1 (12.5%) | AE: Vomiting [4]: 3 (37.5%) | Life-threatening TEAE [4]: 0 | Moderate TEAEs [4]: 5 | Related TEAEs [4]: 7 | Serious TEAEs [4]: 1 | Severe TEAEs [4]: 1 | TEAE leading to death [4]: 0 | TEAEs [4]: 8 | AE: Abdominal bloating [5]: 0 | AE: Abdominal cramp [5]: 0 | AE: Abdominal cramp with loose bowel [5]: 0 | AE: Abdominal pain [5]: 1 (12.5%) | AE: Abnormal LFTs [5]: 0 | AE: Constipation [5]: 1 (12.5%) | AE: Diarrhea [5]: 0 | AE: Dyspepsia [5]: 0 | AE: Dysphasia [5]: 0 | AE: Early satiety [5]: 0 | AE: Emesis [5]: 0 | AE: Exacerbated GERD [5]: 0 | AE: Fatigue [5]: 0 | AE: Headache [5]: 1 (12.5%) | AE: Indigestion [5]: 0 | AE: Lethargy [5]: 0 | AE: Loose bowel motion [5]: 1 (12.5%) | AE: Loose stools [5]: 0 | AE: Loss of Appetite [5]: 1 (12.5%) | AE: Microscopic hematuria [5]: 0 | AE: Nausea [5]: 2 (25.0%) | AE: Reduced appetite [5]: 1 (12.5%) | AE: Reduced bowel motion [5]: 0 | AE: Reflux [5]: 0 | AE: Throat discomfort [5]: 0 | AE: Vomiting [5]: 2 (25.0%) | Life-threatening TEAE [5]: 0 | Moderate TEAEs [5]: 2 | Related TEAEs [5]: 4 | Serious TEAEs [5]: 1 | Severe TEAEs [5]: 1 | TEAE leading to death [5]: 0 | TEAEs [5]: 6 | safety and tolerability (SAD Cohorts 1-5, single SC dose 0.5-7.5 mg, preliminary and blinded data): generally well-tolerated
